Test system: DNA repair protein genes
Test: DNA chip mRNA expression in yeast, DNA repair protein genes (Table 3)
Assay type: cell-based, Saccharomyces cerevisiae S288C
Conditions: incubated two hours, concentrations as in the 1st table
In short: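 Untreated cultures served as reference for log-phase S288C yeast given a growth-inhibiting, non-lethal toxicant dose for 2 h at 25° C. in YPD. Gene expression was measured on a whole-genome DNA chip from Cy3/Cy5-labeled cDNA.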

Q: For `O=[N+]([O-])c1cc[n+]([O-])c2ccccc12` [(5), 4-nitroquinolin-N-oxide], which “The level of expressed mRNA in the presence of chemical substance/The level of expressed mRNA in the absence of chemical substance” value (yeast gene YAL015C) is on record?
A: 1.1

Q: And the “The level of expressed mRNA in the presence of chemical substance/The level of expressed mRNA in the absence of chemical substance” value (yeast gene YAR007C)?
A: 1.5

Q: And the “The level of expressed mRNA in the presence of chemical substance/The level of expressed mRNA in the absence of chemical substance” value (yeast gene YBL019W)?
A: 1.0

Q: And the “The level of expressed mRNA in the presence of chemical substance/The level of expressed mRNA in the absence of chemical substance” value (yeast gene YBR073W)?
A: 1.2

Q: What about the “The level of expressed mRNA in the presence of chemical substance/The level of expressed mRNA in the absence of chemical substance” value (yeast gene YBR272C) of the same compound?
A: 1.1

Q: What about the “The level of expressed mRNA in the presence of chemical substance/The level of expressed mRNA in the absence of chemical substance” value (yeast gene YCR014C) of the same compound?
A: 1.2

Q: And the “The level of expressed mRNA in the presence of chemical substance/The level of expressed mRNA in the absence of chemical substance” value (yeast gene YDL017W)?
A: 1.2

Q: What about the “The level of expressed mRNA in the presence of chemical substance/The level of expressed mRNA in the absence of chemical substance” value (yeast gene YDL059C) of the same compound?
A: 1.2

Q: What about the “The level of expressed mRNA in the presence of chemical substance/The level of expressed mRNA in the absence of chemical substance” value (yeast gene YDL200C) of the same compound?
A: 1.1

Q: What about the “The level of expressed mRNA in the presence of chemical substance/The level of expressed mRNA in the absence of chemical substance” value (yeast gene YDR054C) of the same compound?
A: 0.7

Q: And the “The level of expressed mRNA in the presence of chemical substance/The level of expressed mRNA in the absence of chemical substance” value (yeast gene YDR369C)?
A: 1.0

Q: What about the “The level of expressed mRNA in the presence of chemical substance/The level of expressed mRNA in the absence of chemical substance” value (yeast gene YEL019C) of the same compound?
A: 0.9

Q: And the “The level of expressed mRNA in the presence of chemical substance/The level of expressed mRNA in the absence of chemical substance” value (yeast gene YEL037C)?
A: 0.5

Q: What about the “The level of expressed mRNA in the presence of chemical substance/The level of expressed mRNA in the absence of chemical substance” value (yeast gene YER162C) of the same compound?
A: 0.9

Q: What about the “The level of expressed mRNA in the presence of chemical substance/The level of expressed mRNA in the absence of chemical substance” value (yeast gene YFL014W) of the same compound?
A: 1.0

Q: What about the “The level of expressed mRNA in the presence of chemical substance/The level of expressed mRNA in the absence of chemical substance” value (yeast gene YGL058W) of the same compound?
A: 1.0

Q: What about the “The level of expressed mRNA in the presence of chemical substance/The level of expressed mRNA in the absence of chemical substance” value (yeast gene YGL091C) of the same compound?
A: 0.8

Q: What about the “The level of expressed mRNA in the presence of chemical substance/The level of expressed mRNA in the absence of chemical substance” value (yeast gene YGL127C) of the same compound?
A: 1.3

Q: And the “The level of expressed mRNA in the presence of chemical substance/The level of expressed mRNA in the absence of chemical substance” value (yeast gene YGL163C)?
A: 1.5

Q: What about the “The level of expressed mRNA in the presence of chemical substance/The level of expressed mRNA in the absence of chemical substance” value (yeast gene YGL249W) of the same compound?
A: 1.1

Q: What about the “The level of expressed mRNA in the presence of chemical substance/The level of expressed mRNA in the absence of chemical substance” value (yeast gene YGR180C) of the same compound?
A: 2.0

Q: What about the “The level of expressed mRNA in the presence of chemical substance/The level of expressed mRNA in the absence of chemical substance” value (yeast gene YGR231C) of the same compound?
A: 1.3

Q: What about the “The level of expressed mRNA in the presence of chemical substance/The level of expressed mRNA in the absence of chemical substance” value (yeast gene YGR258C) of the same compound?
A: 1.5

Q: What about the “The level of expressed mRNA in the presence of chemical substance/The level of expressed mRNA in the absence of chemical substance” value (yeast gene YHR164C) of the same compound?
A: 0.9

Q: And the “The level of expressed mRNA in the presence of chemical substance/The level of expressed mRNA in the absence of chemical substance” value (yeast gene YIL036W)?
A: 0.9

Q: And the “The level of expressed mRNA in the presence of chemical substance/The level of expressed mRNA in the absence of chemical substance” value (yeast gene YIL072W)?
A: 1.5

Q: And the “The level of expressed mRNA in the presence of chemical substance/The level of expressed mRNA in the absence of chemical substance” value (yeast gene YIL143C)?
A: 0.8

Q: What about the “The level of expressed mRNA in the presence of chemical substance/The level of expressed mRNA in the absence of chemical substance” value (yeast gene YIL153W) of the same compound?
A: 1.0

Q: What about the “The level of expressed mRNA in the presence of chemical substance/The level of expressed mRNA in the absence of chemical substance” value (yeast gene YIR002C) of the same compound?
A: 1.2

Q: And the “The level of expressed mRNA in the presence of chemical substance/The level of expressed mRNA in the absence of chemical substance” value (yeast gene YJL026W)?
A: 1.7

Q: And the “The level of expressed mRNA in the presence of chemical substance/The level of expressed mRNA in the absence of chemical substance” value (yeast gene YJR046W)?
A: 0.8

Q: And the “The level of expressed mRNA in the presence of chemical substance/The level of expressed mRNA in the absence of chemical substance” value (yeast gene YJR052W)?
A: 1.0

Q: What about the “The level of expressed mRNA in the presence of chemical substance/The level of expressed mRNA in the absence of chemical substance” value (yeast gene YKL145W) of the same compound?
A: 1.4

Q: And the “The level of expressed mRNA in the presence of chemical substance/The level of expressed mRNA in the absence of chemical substance” value (yeast gene YLR103C)?
A: 1.0

Q: What about the “The level of expressed mRNA in the presence of chemical substance/The level of expressed mRNA in the absence of chemical substance” value (yeast gene YLR233C) of the same compound?
A: 1.2

Q: And the “The level of expressed mRNA in the presence of chemical substance/The level of expressed mRNA in the absence of chemical substance” value (yeast gene YLR288C)?
A: 1.7

Q: And the “The level of expressed mRNA in the presence of chemical substance/The level of expressed mRNA in the absence of chemical substance” value (yeast gene YML032C)?
A: 1.0

Q: And the “The level of expressed mRNA in the presence of chemical substance/The level of expressed mRNA in the absence of chemical substance” value (yeast gene YML058W)?
A: 0.6

Q: And the “The level of expressed mRNA in the presence of chemical substance/The level of expressed mRNA in the absence of chemical substance” value (yeast gene YMR035W)?
A: 0.8

Q: And the “The level of expressed mRNA in the presence of chemical substance/The level of expressed mRNA in the absence of chemical substance” value (yeast gene YMR072W)?
A: 1.7

Q: What about the “The level of expressed mRNA in the presence of chemical substance/The level of expressed mRNA in the absence of chemical substance” value (yeast gene YMR096W) of the same compound?
A: 1.0

Q: What about the “The level of expressed mRNA in the presence of chemical substance/The level of expressed mRNA in the absence of chemical substance” value (yeast gene YMR284W) of the same compound?
A: 0.8

Q: And the “The level of expressed mRNA in the presence of chemical substance/The level of expressed mRNA in the absence of chemical substance” value (yeast gene YNL213C)?
A: 1.3

Q: And the “The level of expressed mRNA in the presence of chemical substance/The level of expressed mRNA in the absence of chemical substance” value (yeast gene YNL250W)?
A: 0.8

Q: And the “The level of expressed mRNA in the presence of chemical substance/The level of expressed mRNA in the absence of chemical substance” value (yeast gene YNL261W)?
A: 0.7

Q: What about the “The level of expressed mRNA in the presence of chemical substance/The level of expressed mRNA in the absence of chemical substance” value (yeast gene YNL312W) of the same compound?
A: 1.4

Q: And the “The level of expressed mRNA in the presence of chemical substance/The level of expressed mRNA in the absence of chemical substance” value (yeast gene YOL043C)?
A: 1.2

Q: What about the “The level of expressed mRNA in the presence of chemical substance/The level of expressed mRNA in the absence of chemical substance” value (yeast gene YOR005C) of the same compound?
A: 1.3

Q: What about the “The level of expressed mRNA in the presence of chemical substance/The level of expressed mRNA in the absence of chemical substance” value (yeast gene YOR386W) of the same compound?
A: 1.2

Q: What about the “The level of expressed mRNA in the presence of chemical substance/The level of expressed mRNA in the absence of chemical substance” value (yeast gene YPL022W) of the same compound?
A: 0.8

Q: And the “The level of expressed mRNA in the presence of chemical substance/The level of expressed mRNA in the absence of chemical substance” value (yeast gene YPL164C)?
A: 1.2

Q: What about the “The level of expressed mRNA in the presence of chemical substance/The level of expressed mRNA in the absence of chemical substance” value (yeast gene YPL194W) of the same compound?
A: 1.3

Q: And the “The level of expressed mRNA in the presence of chemical substance/The level of expressed mRNA in the absence of chemical substance” value (yeast gene YPR025C)?
A: 1.6

— patent US8192962B2, “Processes for detecting toxic substances” (Daikin Industries, Ltd., priority 2001, dated 2012)
